{"source": "paper PMC2151567", "about": "(The Journal of General Physiology, 2006)", "target": "mouse BK channel (mSlo) (Mus musculus, UniProt Q08460)", "sequence (Q08460 whole entry)": "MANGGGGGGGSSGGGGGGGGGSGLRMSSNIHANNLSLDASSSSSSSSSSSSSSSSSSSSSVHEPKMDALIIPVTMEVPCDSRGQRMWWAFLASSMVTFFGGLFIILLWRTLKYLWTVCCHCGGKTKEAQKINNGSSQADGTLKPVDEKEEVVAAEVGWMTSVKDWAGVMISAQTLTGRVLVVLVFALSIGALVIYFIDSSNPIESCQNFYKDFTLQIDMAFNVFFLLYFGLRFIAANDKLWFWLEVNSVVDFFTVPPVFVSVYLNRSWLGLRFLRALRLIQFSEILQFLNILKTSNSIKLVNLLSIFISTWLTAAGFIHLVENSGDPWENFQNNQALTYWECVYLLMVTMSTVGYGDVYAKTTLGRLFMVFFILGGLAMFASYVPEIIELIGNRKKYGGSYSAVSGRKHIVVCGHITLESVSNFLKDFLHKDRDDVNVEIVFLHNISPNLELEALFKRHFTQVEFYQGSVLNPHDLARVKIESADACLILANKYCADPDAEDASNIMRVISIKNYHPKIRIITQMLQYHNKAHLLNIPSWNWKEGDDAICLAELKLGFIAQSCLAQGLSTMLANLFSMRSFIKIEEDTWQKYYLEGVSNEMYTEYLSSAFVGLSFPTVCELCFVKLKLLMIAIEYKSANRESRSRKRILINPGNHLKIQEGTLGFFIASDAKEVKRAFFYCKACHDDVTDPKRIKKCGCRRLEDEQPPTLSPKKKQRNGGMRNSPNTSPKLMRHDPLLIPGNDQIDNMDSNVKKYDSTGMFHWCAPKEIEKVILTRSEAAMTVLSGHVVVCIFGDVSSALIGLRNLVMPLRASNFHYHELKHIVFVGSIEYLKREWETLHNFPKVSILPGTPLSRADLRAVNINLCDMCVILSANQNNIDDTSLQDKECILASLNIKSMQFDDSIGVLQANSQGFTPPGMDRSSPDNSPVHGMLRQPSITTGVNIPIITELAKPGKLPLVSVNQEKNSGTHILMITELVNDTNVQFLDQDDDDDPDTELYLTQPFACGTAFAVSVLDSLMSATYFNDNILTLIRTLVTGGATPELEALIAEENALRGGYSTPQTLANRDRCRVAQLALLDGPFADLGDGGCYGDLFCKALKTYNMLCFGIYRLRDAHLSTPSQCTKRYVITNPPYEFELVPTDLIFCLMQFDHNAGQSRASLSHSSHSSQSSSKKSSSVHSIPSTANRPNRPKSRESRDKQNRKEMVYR", "format": "cell-based", "data": [{"compound": "CCCC[N+](CCCC)(CCCC)CCCC", "note": "[TBA, tetrabutylammonium]", "values": [{"measurement": "Kd", "value": 628, "unit": "µM"}]}]}
